Assay results published in patent publication US11124508B2 (priority 2017, dated 2021).

Q: For Cc1c(Cl)ccc2c(C3=NC(C)(C)C(F)(F)c4ccccc43)cnn12 [X.001, 1-(6-chloro-7-methyl-pyrazolo[1,5-a]pyridin-3-yl)-4,4-difluoro-3,3-dimethyl-isoquinoline], which melting point is on record?
A: 166 to 168 °C

Q: For Cc1ccc2c(C3=NC(C)(C)C(C)(C)c4c(F)cccc43)cnn2c1C [X.012, 1-(6,7-dimethylpyrazolo[1,5-a]pyridin-3-yl)-5-fluoro-3,3,4,4-tetramethyl-isoquinoline], which melting point is on record?
A: 175 to 176 °C

Q: Which melting point does the source give for Cc1ccc2c(C3=NC(C)(C)C(F)(F)c4ccccc43)cnn2c1 [X.005, 4,4-difluoro-3,3-dimethyl-1-(6-methylpyrazolo[1,5-a]pyridin-3-yl)isoquinoline] here?
A: 105 to 107 °C

Q: With CC1(C)N=C(c2cnn3cc(Cl)ccc23)c2ccccc2C1(F)F [X.003, 1-(6-chloropyrazolo[1,5-a]pyridin-3-yl)-4,4-difluoro-3,3-dimethyl-isoquinoline] as the compound, how does the melting point read?
A: 113 to 118 °C

Q: With Cc1ccc2c(C3=NC(C)(C)C(F)(F)c4ccccc43)cnn2c1C [X.011, 1-(6,7-dimethylpyrazolo[1,5-a]pyridin-3-yl)-4,4-difluoro-3,3-dimethyl-isoquinoline] as the compound, how does the melting point read?
A: 160 to 161 °C

Q: For Cc1cccn2c(C3=NC(C)(C)C(C)(C)c4c(F)cccc43)cnc12 [X.019, 5-fluoro-3,3,4,4-tetramethyl-1-(8-methylimidazo[1,2-a]pyridin-3-yl)isoquinoline], which melting point is on record?
A: 160 to 161 °C

Q: Which melting point does the source give for Cc1ccn2c(C3=NC(C)(C)C(F)(F)c4ccccc43)cnc2c1C [X.014, 1-(7,8-dimethylimidazo[1,2-a]pyridin-3-yl)-4,4-difluoro-3,3-dimethyl-isoquinoline] here?
A: 159 to 161 °C

Q: For Cc1cccc2c(C3=NC(C)(C)C(C)(C)c4c(F)cccc43)cnn12 [X.013, 5-fluoro-3,3,4,4-tetramethyl-1-(7-methylpyrazolo[1,5-a]pyridin-3-yl)isoquinoline], which melting point is on record?
A: 134 to 136 °C

Q: With CC1(C)N=C(c2cnn3cc(Br)ccc23)c2ccccc2C1(F)F [X.006, 1-(6-bromopyrazolo[1,5-a]pyridin-3-yl)-4,4-difluoro-3,3-dimethyl-isoquinoline] as the compound, how does the melting point read?
A: 127 to 129 °C

Q: With Cc1c(Br)ccc2c(C3=NC(C)(C)C(F)(F)c4ccccc43)cnn12 [X.007, 1-(6-bromo-7-methyl-pyrazolo[1,5-a]pyridin-3-yl)-4,4-difluoro-3,3-dimethyl-isoquinoline] as the compound, how does the melting point read?
A: 180 to 182 °C

Q: With Cc1ccn2c(C3=NC(C)(C)C(C)(C)c4c(F)cccc43)cnc2c1C [X.016, 1-(7,8-dimethylimidazo[1,2-a]pyridin-3-yl)-5-fluoro-3,3,4,4-tetramethyl-isoquinoline] as the compound, how does the melting point read?
A: 185 to 186 °C
